In patent US9062050B2, “Inhibitor of JAK1 and JAK2” (Eli Lilly and Company, priority 2012, dated 2015):
pIC50: −log10 of the molar value.

Molecular target: T1, JAK3 (Homo sapiens, UniProt P52333)
T1 sequence (P52333 1-1124): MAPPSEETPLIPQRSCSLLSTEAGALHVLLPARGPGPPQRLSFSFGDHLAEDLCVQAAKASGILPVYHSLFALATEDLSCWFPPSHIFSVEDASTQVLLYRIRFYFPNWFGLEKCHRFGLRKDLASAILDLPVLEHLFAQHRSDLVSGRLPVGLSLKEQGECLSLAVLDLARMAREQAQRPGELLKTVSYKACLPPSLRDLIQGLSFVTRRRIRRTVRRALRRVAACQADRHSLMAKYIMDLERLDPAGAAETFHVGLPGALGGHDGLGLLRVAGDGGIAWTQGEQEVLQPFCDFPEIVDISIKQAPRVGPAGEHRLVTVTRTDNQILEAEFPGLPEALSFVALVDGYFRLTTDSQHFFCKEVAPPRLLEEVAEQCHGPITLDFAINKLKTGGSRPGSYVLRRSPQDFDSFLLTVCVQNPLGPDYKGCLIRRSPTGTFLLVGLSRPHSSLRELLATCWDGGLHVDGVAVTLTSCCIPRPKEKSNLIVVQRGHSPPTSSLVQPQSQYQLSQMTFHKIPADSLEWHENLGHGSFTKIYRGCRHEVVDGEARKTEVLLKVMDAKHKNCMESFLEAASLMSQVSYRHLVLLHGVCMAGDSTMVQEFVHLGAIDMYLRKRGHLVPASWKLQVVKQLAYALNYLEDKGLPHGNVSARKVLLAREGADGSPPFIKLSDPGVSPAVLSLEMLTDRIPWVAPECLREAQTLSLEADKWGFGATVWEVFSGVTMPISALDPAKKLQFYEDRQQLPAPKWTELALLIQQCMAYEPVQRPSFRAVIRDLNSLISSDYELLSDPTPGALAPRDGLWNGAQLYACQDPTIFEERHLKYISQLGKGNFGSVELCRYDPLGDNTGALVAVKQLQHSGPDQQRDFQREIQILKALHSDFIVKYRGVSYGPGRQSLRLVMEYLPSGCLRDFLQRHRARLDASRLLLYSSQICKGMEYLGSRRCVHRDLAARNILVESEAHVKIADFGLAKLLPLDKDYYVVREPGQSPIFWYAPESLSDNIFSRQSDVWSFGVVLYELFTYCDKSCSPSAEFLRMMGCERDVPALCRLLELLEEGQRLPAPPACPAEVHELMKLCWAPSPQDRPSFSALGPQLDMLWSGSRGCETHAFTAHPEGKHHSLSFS
Test: JAK LanthaScreen Kinase Assay (TR-FRET), JAK3
Format: biochemical
Excerpt: The JAK LanthaScreen™ Kinase Assay (Life Technologies, #PV4844) is used to determine compound IC50 values against the JAK1, JAK2, and JAK3 kinases. This kinase assay is a Time Resolved Fluorescence Resonance Energy Transfer (TR-FRET) assay format that uses long-lifetime terbium (Tb) labeled antibody as the donor species and Green Fluorescent Protein-Signal Transducers and Activators of Transcription (GFP-STAT1) as the acceptor species.
The TR-FRET ratio is used to monitor JAK1, JAK2, or JAK3 activity where an increase in phosphorylation of the GFP-STAT1 results in an increase in the TR-FRET ratio. Perform the kinase reaction using a 12.5 microliter reaction volume in shallow black 384-well Proxiplate (PerkinElmer, #6008260). […] Incubate at room temperature for 90 minutes, and read in an EnVision plate reader (PerkinElmer, #2104-0010) with 340 nm wavelength excitation filter and emission filters of 520 nm and 495 nm wavelengths. The ratio is derived from the emission wavelength for the GFP-STAT1 which is measured at 520 nanometer versus the emission at 495 nanometer for the Tb-anti-pSTAT1[pTyr701]. Derive the IC50 value for the compound using percent inhibition data, which is calculated from the reaction data relative to on-plate controls (active enzyme versus 2.0 micromolar control-inhibited enzyme). […]

Cc1cc(Nc2ccc3ncn([C@@H]4CCc5ccc(F)cc54)c3n2)[nH]n1.Cl.Cl [Example 1, 3-[(1R)-6-fluoro-2,3-dihydro-1H-inden-1-yl]-N-(3-methyl-1H-pyrazol-5-yl)-3H-imidazo[4,5-b]pyridin-5-amine dihydrochloride]
pIC50 (enzyme assay, 2 micromolar ATP, n=6, read-out: IC50 against JAK3): 8.10
selectivity for JAK1 and JAK2 over JAK3 in the enzyme assays (enzyme assays, JAK1 and JAK2 versus JAK3): greater than four-fold
